These results are taken from article PMC3788796, “The Antimicrobial Domains of Wheat Puroindolines Are Cell-Penetrating Peptides with Possible Intracellular Mechanisms of Action” (PLoS ONE, 2013).

Values joined by “and” are separate entries in the source; they are usually repeats but may differ in a detail not shown here. Equal entries are not always repeated.

The nature of experiment [1]: Calcein dye leakage from bacteria-mimicking LUVs. It counts as biochemical. As to conditions: LUVs 10 µM phospholipid, 10 mM Tris, 100 mM NaCl pH 7.4, 5 min, fluorescence 496/515 nm, no-peptide control 28.5, average of duplicate experiments. As for the experimental part: (§1) A calcein leakage assay as previously described was performed to determine the effects of PIN-based peptides on the permeability of synthetic large unilamellar vesicles (LUVs), designed to mimic bacterial and mammalian cell membranes. The phospholipids used were DOPC (1,2-dioleoyl-sn-glycero-3-phosphocholine), with zwitterionic head groups and DOPG (1,2-dioleoyl-sn-glycerol-3-[phosphor-rac-(1-glycerol)]), with negatively charged headgroups (Avanti® Polar lipids, Alabaster, USA). These were used to make DOPC:DOPG (1∶3) LUVs to mimic bacterial cell membranes, or DOPC only, to mimic mammalian cell membranes. Calcein-entrapped LUVs were prepared by the extrusion method using an Avanti mini extrusion apparatus (Avanti® Polar Lipids, Alabaster, USA). The DOPC:DOPG (a 1∶3 mixture) or DOPC were dissolved in chloroform (25 mg/mL) and aliquoted into glass test tubes to give a concentration of 2.6 mM when resuspended in 2 mL buffer. Chloroform was evaporated under a stream of N2 and the lipid films were dried overnight under vacuum. The films were then resuspended in 2.0 mL of 70 mM calcein buffer (in 10 mM Tris-HCl, pH 7.4) and incubated at room temperature for 30 minutes. To increase entrapment of the dye, five repeated freeze\thaw cycles were used by placing the vial in liquid N2 and then a warm water bath (37°C). The lipid mixture was then extruded through the mini-extruder 10 times through two stacked 0.1 µm pore-size filters. Free calcein was removed by centrifugation (10, 000×g, 10 min) three times and washing with 10 mM Tris, 100 mM NaCl buffer (pH 7.4). Standards of phosphorus (inorganic P; Pi) were prepared (0.05–1.5 mg/mL) using KH2PO4 and read at 820 nm and a linear standard curve was generated (Figure S1 in File S1). The phospholipid concentration of the vesicle preparations was determined by a total phosphorus assay. The assay reagent was prepared fresh by mixing 1 part of 1% ascorbic acid with 6 parts of 0.42% ammonium molybdate•4H2O in H2SO4 and stored on ice. 7 µL of it was added to 3 µL of vesicle suspensions and incubated for 20 min at 45°C. […] The standard curve of phosphorus standards (Figure S1 in File S1) was used to determine the Pi concentration in a LUV preparation, and this was converted to phospholipid concentration (Table S1 in File S1) to adjust the preparations to the required 10 µM phospholipid concentration prior to peptide treatment.
(§2) The calcein-filled LUVs were diluted with 10 mM Tris, 100 mM NaCl buffer (pH 7.4) to a final phospholipid concentration of 10 µM. The experiments were performed in a Varian Cary Eclipse fluorescence spectrophotometer with excitation and emission wavelengths of 496 nm and 515 nm, slit widths of […] and a PMT detector of 600 V. The peptides (PuroA, Pina-M, Pina-W→F and PuroB) were added to LUVs to a final peptide concentration of 8–125 µg/mL in 100 µL volumes and the fluorescence (F) monitored for 5 min at 60 s intervals. The total calcein fluorescence (FT) was determined by addition of 1.0% Triton X100. The dye leakage was calculated as % Leakage = ((F – F0)/(FT – F0)), F0 being fluorescence of each sample at T = 0.

The nature of experiment [2]: Calcein dye leakage from mammalian-mimicking LUVs. The format is biochemical. The following applies: for % Calcein leakage from DOPC LUVs: LUVs 10 µM phospholipid, 10 mM Tris, 100 mM NaCl pH 7.4, 5 min, fluorescence 496/515 nm, no-peptide control 28.0, average of duplicate experiments. As for the experimental part: as §1, §2
Experiment [3] relates to plasmid DNA (pBluescript SK+). The experiment can be described thus: Gel retardation assay for in vitro DNA binding. As to conditions: 100 ng plasmid DNA in 10 µL MilliQ water, 1 h room temperature, peptide 16–500 µg/mL, post-electrophoresis EtBr staining, triplicate assays. Here is the method: This test assesses any peptide-DNA binding by noting the retardation of the rate of migration of DNA bands through agarose gels. A number of methods were tested. As per Hsu et al., DNA of a plasmid (200 ng) or a commercial molecular weight marker (50 ng) was mixed with a peptide (to final concentrations of 32, 64, 125 or 250 µg/mL) in 15 µL of 10 mM Tris-1 mM EDTA buffer (pH 8.0), incubated at room temperature for 2 min, then electrophoresed in 0.5% or 1.0% agarose gels containing 0.5 µg/mL ethidium bromide (EtBr). Following Park et al., 100 ng plasmid DNA was mixed with a peptide (to different concentrations) in 20 µL binding buffer (5% glycerol, 10 mM Tris-HCl (pH 8.0), 1 mM EDTA, 1 mM DTT, 20 mM KCl, 50 µg/mL BSA), held for 1 h at room temperature, then electrophoresed in EtBr-containing gels. Finally the protocols were modified to eliminate any interference of EtBr in the initial peptide-DNA binding. Plasmid DNA (100 ng) was mixed with a peptide (to final concentrations of 16, 32, 64, 125, 250 or 500 µg/mL) in 10 µL of MilliQ water, held at room temperature for 1 h and electrophoresed, followed by emersion of gels in EtBr solution (0.5 µg/mL) for 30 min before imaging.

The next experiment relates to S. cerevisiae cells. The experiment can be described thus: SEM of peptide-treated yeast cells. It counts as cell-based, Saccharomyces cerevisiae. The following applies: sub-MIC: PuroA and Pina-M 64 µg/mL, Pina-W→F 125 µg/mL; 1 h 30°C. Here is the method: S. cerevisiae cultures were grown overnight in 5.0 mL of PDB 30°C, to OD600 = 1.2–1.8 (∼5×10^7 cells/mL). 75 µL aliquots of the yeast cell suspension were incubated with 25 µL of PuroA, Pina-M, Pina-W→F or PuroB (at final concentrations of 0.5×, 1× or 2× of the respective MIC for S. cerevisiae; see results) for 1 h at 30°C. The cells were collected by centrifugation (1000×g, 5 min), the pellets washed three times in PBS (pH 7.4) and resuspended in 100 µL MilliQ (ultra-pure) water. A 25 µL aliquot of the cell suspension was spotted onto a glass slide, air-dried, then fixed and dehydrated as described previously. In brief, the air-dried slides were fixed in 2.5% glutaraldehyde (in PBS, pH 7.4) overnight in a humid chamber, then washed with PBS pH 7.4 for 10 min, and dehydrated in an ethanol gradient of 50%, 60%, 70%, 80%, 90% and 100%. The slides were freeze-dried overnight and then coated in a Dynavac CS300 coating unit with carbon and gold, with double sided conducting carbon tape attached to the slides for better conductivity. The samples were analysed using a ZEISS supra 10 VP field emission scanning electron microscope (Carl Zeiss Microscopy, NY, USA) at 3.0 kV.

For “FPVTFRFFKFFKG-NH2 [Pina-W→F, PuroA-based peptide with all Trps substituted with Phe residues]”, the “% Calcein leakage from DOPC:DOPG LUVs” value in experiment [1] (peptide 8 µg/mL) is given as 29.2%; in experiment [1] (peptide 16 µg/mL) it was 32.0%; in experiment [1] (peptide 32 µg/mL), 64%; in experiment [1] (peptide 64 µg/mL), 78.0%; in experiment [1] (peptide 125 µg/mL) it was 81.0%. Besides, in experiment [2] (over all tested concentrations, even at high concentration), the “dye leakage from the DOPC LUVs (in words)” value is recorded as “no significant leakage”. For the same substance, the “% Calcein leakage from DOPC LUVs” value in experiment [2] (peptide 8 µg/mL) is given as 28.0%; in experiment [2] (peptide 16 µg/mL), 27.0%; in experiment [2] (peptide 32 µg/mL), 27.0%; in experiment [2] (peptide 64 µg/mL), 31.0%; in experiment [2] (peptide 125 µg/mL (highest for PuroA, Pina-M, Pina-W→F)), 36.0%. The “Peptide concentration inducing gel retardation, Partial” value in experiment [3] was 32 ± 0 µg/mL. Moreover, the “Peptide concentration inducing gel retardation, Full” value in experiment [3] (complete inhibition of migration) is 64 µg/mL and 64 ± 0 µg/mL. The “surface morphology of yeast cells (SEM) at sub-MIC level” value in the experiment on S. cerevisiae cells is reported as “shallow pits or pores on the surface”.
